# Assay results as given in patent US20220218664A1, “DRUG AND METHOD FOR TREATING OR PREVENTING COMPLICATIONS FROM DIABETES, USING SAID DRUG” (TMS Co., Ltd., priority 2019, published 2022).
# How the values were obtained:
# Assay type in all cases: in vivo, C57BL/6J male mice
# malondialdehyde: MDA = test: Oxidative stress (MDA, TBARS assay) in sciatic nerve; settings: 30 mg/kg i.p. once a day, 4th week
# Experimental: (§1) 9-week-old C57BL/6J male mice were purchased and familiarized with an animal facility for 1 week. 200 mg/kg of streptozotocin (streptozotocin; STZ) was administered […] into the peritoneal cavity of 10-week-old mice to prepare streptozotocin-induced diabetic mice (hereinafter also referred to as “STZ administration week 0”). One week after the administration of streptozotocin, blood was collected from the tail vein of the mice, and the blood glucose level (BS) was measured using an automatic blood glucose measuring device (product name: Medisafe (trademark) Mini GR-102, made by Terumo (Co)). Mice having a blood glucose level of 400 mg/dL or more were determined to be diabetic mice.
# (§2) The SMTP-44D groups, the edaravone group, and the pregabalin group were administered SMTP-44D (0.3 mg/kg, 3 mg/kg, or 30 mg/kg doses, respectively), edaravone (10 mg/kg dose), or pregabalin (10 mg/kg dose) into the peritoneal cavity once a day for 3 consecutive weeks from the day following the first week to the fourth week after STZ administration.
# The sciatic nerves of the above-mentioned STZ group, SMTP-44D group (30 mg/kg), edaravone group, pregabalin group, and control group mice in the 4th week were homogenized using an RIPA buffer containing a protease inhibitor cocktail. Moreover, centrifugation was conducted at 4° C. for 15 minutes at 1600 g, and the supernatant was collected and used for measuring MDA (μM) and total protein concentration (μg/mL), respectively. MDA was measured using a TBARS Assay Kit. The total protein concentration was measured using a Pierce (Trademark) BCA Protein Assay Kit. Oxidative stress levels (nmol/mg protein) were calculated from MDA (μM) and the total protein concentration (μg/mL).
# IL-6 = test: Inflammatory cytokine IL-6 in sciatic nerve (ELISA); settings: 30 mg/kg i.p. once a day, 4th week
# Experimental: as §1, §2
# (§3) The sciatic nerves of the above-mentioned STZ group, SMTP-44D group (30 mg/kg), edaravone group, pregabalin group, and control group mice on the 4th week were homogenized using the RIPA buffer containing a protease inhibitor cocktail. Moreover, centrifugation was conducted at 4° C. for 15 minutes at 10,000 g, and the supernatant was collected and used for measuring TNF-α concentration (pg/mL), IL-1β concentration (pg/mL), IL-6 concentration (pg/mL), and total protein concentration (μg/mL), respectively. An ELISA assay kit was used for the TNF-α, IL-1β, and IL-6 concentrations. The total protein concentration was measured by using a Pierce (trademark) BCA Protein Assay Kit. The inflammatory cytokine level (pg/mg protein) in the total protein was calculated from the TNF-α concentration (pg/mL), IL-1β concentration (pg/mL), and IL-6 concentration (pg/mL), and total protein concentration (μg/mL).
# [1] = test system: streptozotocin-induced diabetic mice; test: Blood glucose level (BS) in streptozotocin-induced diabetic mice; settings: 30 mg/kg i.p. once a day
# Experimental: as §1, §2
# (§4) For the above-mentioned STZ group, SMTP-44D groups, edaravone group, pregabalin group, and control group mice, the following measurements were conducted every week from the 0th week, which began on the day when streptozotocin (STZ) was administered, to the 4th week (that is, a total of five times). As algesia tests, the following von Frey test and hot plate test were conducted, and hind plantar blood flow, body weight (BW), and blood glucose level (BS) were measured using the above-mentioned automatic blood glucose measure device. Note, for example, the 0th week represents the 0th day. That is, the measurements were conducted on the 0th, 7th, 14th, 21st, and 28th days.
# [2] = Body weight (BW) in streptozotocin-induced diabetic mice; settings: 30 mg/kg i.p. once a day
# Experimental: as §1, §2, §4
# TNF-α = test: Inflammatory cytokine TNF-α in sciatic nerve (ELISA); settings: 30 mg/kg i.p. once a day, 4th week
# Experimental: as §1, §2, §3
# [3] = test system: streptozotocin-induced diabetic mice; test: Thickness and G-ratio of myelin in the sciatic nerve; settings: 30 mg/kg i.p. once a day, 4th week
# Experimental: as §1, §2
# The above-mentioned STZ group, SMTP-44D (30 mg/kg) group, edaravone group, pregabalin group, and control group mice in the 4th week were dissected to remove the sciatic nerves. The sciatic nerves were fixed using neutral buffered formalin and embedded using an Epon resin, and then semi-thin segments were formed and dyed using toluidine blue. The cross sections of the sciatic nerves in the respective specimens were examined using a microscope equipped with a digital camera at 400× magnification. The thickness of myelin ((diameter of axon including myelin diameter of axon)/2) and G-ratio (diameter of axon/diameter of axon including myelin) were measured.
# [4] = test system: streptozotocin-induced diabetic mice; test: Hot plate test: evaluating thermal stimulus
# Experimental: as §1, §2
# The above-mentioned STZ group, SMTP-44D groups, edaravone group, pregabalin group, and control group mice were put in grid-like boxes, respectively, and were left for 30 minutes. After having been left, an acrylic disc (diameter: 20 cm; height (that is, thickness of the acrylic disc): […]) was placed on an EC hot plate (model number: EC1200) maintained at 49 to 50° C., and the mice were put on the acrylic disc. The measurements were started after the mice landed on the EC hot plate. The times from the mice landing to their action to jump or lick their hind legs were evaluated as thermal thresholds (seconds: s). Note, to avoid burns on their plantae, the measurements were ceased 30 seconds after beginning. The measurements were conducted three times at 30-minute intervals. A mean value of three thermal thresholds (seconds: s) was calculated for 1 mouse, and then a mean value of the 12 mice for the respective groups was found.
# IL-1β = test: Inflammatory cytokine IL-1β in sciatic nerve (ELISA); settings: 30 mg/kg i.p. once a day, 4th week
# Experimental: as §1, §2, §3
smiles,measurement,setting,value
CC(C)=CCCC(C)=CCCC1(C)Oc2c(c(O)cc3c2CN(C(C(=O)O)c2ccc(O)cc2)C3=O)CC1O (stereo not drawn) [SMTP-44D],MDA (oxidative stress),malondialdehyde: MDA,1.98±0.51 nmol/mg protein
same,IL-6,IL-6,143.41±8.08 pg/mg protein
same,BS (blood glucose level),[1]; 0th week (before dosing),203.5 ± 5.5 mg/dL
same,BS (blood glucose level),[1]; 1st week (before dosing),535.5 ± 28.7 mg/dL
same,BS (blood glucose level),[1]; 2nd week,597.3 ± 44.8 mg/dL
same,BS (blood glucose level),[1]; 3rd week,638.7 ± 34.2 mg/dL
same,BS (blood glucose level),[1]; 4th week,580.3 ± 42.9 mg/dL
same,Body weight decrease between the 0th week and 4th week,[2],1.5 g
same,BW (body weight),[2]; 0th week (before dosing),23.0 ± 0.4 g
same,BW (body weight),[2]; 1st week (before dosing),21.7 ± 0.5 g
same,BW (body weight),[2]; 3rd week,21.3 ± 0.6 g
same,BW (body weight),[2]; 4th week,21.5 ± 0.5 g
same,TNF-α,TNF-α,15.22±2.51 pg/mg protein
same,Thickness of myelin,[3],1.58±0.02 μm
same,Hot plate test thermal threshold,"[4]; 0.3 mg/kg i.p. once a day, 0th week (before dosing)",22.8 ± 1.2 s
same,Hot plate test thermal threshold,"[4]; 0.3 mg/kg i.p. once a day, 1st week (before dosing)",14.3 ± 1.0 s
same,Hot plate test thermal threshold,"[4]; 0.3 mg/kg i.p. once a day, 2nd week",14.0 ± 1.4 s
same,Hot plate test thermal threshold,"[4]; 0.3 mg/kg i.p. once a day, 3rd week",13.3 ± 1.3 s
same,Hot plate test thermal threshold,"[4]; 0.3 mg/kg i.p. once a day, 4th week",13.1 ± 0.6 s
same,Hot plate test thermal threshold,"[4]; 3 mg/kg i.p. once a day, 0th week (before dosing)",21.0 ± 1.3 s
same,Hot plate test thermal threshold,"[4]; 3 mg/kg i.p. once a day, 1st week (before dosing)",14.6 ± 1.4 s
same,Hot plate test thermal threshold,"[4]; 3 mg/kg i.p. once a day, 2nd week",15.4 ± 0.8 s
same,Hot plate test thermal threshold,"[4]; 3 mg/kg i.p. once a day, 3rd week",15.1 ± 1.1 s
same,Hot plate test thermal threshold,"[4]; 3 mg/kg i.p. once a day, 4th week",15.1 ± 1.3 s
same,Hot plate test thermal threshold,"[4]; 30 mg/kg i.p. once a day, 0th week (before dosing)",21.3 ± 0.4 s
same,Hot plate test thermal threshold,"[4]; 30 mg/kg i.p. once a day, 1st week (before dosing)",15.0 ± 0.7 s
same,Hot plate test thermal threshold,"[4]; 30 mg/kg i.p. once a day, 2nd week",18.0 ± 1.2 s
same,Hot plate test thermal threshold,"[4]; 30 mg/kg i.p. once a day, 3rd week",18.4 ± 1.3 s
same,Hot plate test thermal threshold,"[4]; 30 mg/kg i.p. once a day, 4th week",18.2 ± 1.1 s
same,IL-1β,IL-1β,24.90±4.05 pg/mg protein
